Laboratory results taken from patent US8486996B2, “Aroylfuranes and aroylthiophenes” (Basilea Pharmaceutica AG, priority 2006, dated 2013).
Where two headings read alike, the source gives them in different places.

What was measured:
[1] = Hoechst 33342 nuclear staining (48 h read-out); assay type: cell-based
Summary of the method: (§1)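 Adherent cells pre-spread 24 h before dosing, suspension cells dosed at seeding; compounds at 0.001 μM-10 μM final, 48 h at culture conditions. Hoechst 33342 (2-5 μg/ml) added for 30 min, then fluorescence microscopy scoring of apoptotic nuclear fraction and apoptosis-specific morphology, reported as scores A-D.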

tumor cells [2] = test: Hoechst 33342 nuclear staining (48 h read-out); assay type: cell-based
Summary of the method: as §1

[3] = MTS proliferation assay (72 h read-out); assay type: cell-based; conditions: Homo sapiens, MRC5 cells
Summary of the method: (§2)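 Tumour cells (1.5×10^3–10^4 per well) were seeded 24 h before compound addition, then exposed to 0.001–10 μM final compound for 72 h under culture conditions. MTS reagent was added for a further 3 h, absorbance was read at 492 nm, and results were binned into scores A–D.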

tumor cells [4] = test: MTS proliferation assay (72 h read-out); assay type: cell-based
Summary of the method: as §2

[5] = Mitochondrial membrane potential, JC-1 (read-out 48 h); assay type: cell-based; conditions: PBL, JC-1, 48 h
Summary of the method: (§3)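 Tumor cells were treated with test compounds (adherent cells after 24 h of attachment, suspension cells immediately), medium holding up to 5% DMSO. After 48 h, JC-1 (2-5 μg/ml in added medium) was applied for 30 min. Fluorescence microscopy (FITC/TRITC filters) scored the fraction of cells with dissipated mitochondrial membrane potential as categories A-D.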

tumor cells [6] = test: as above; assay type: cell-based; conditions: JC-1, 48 h
Summary of the method: as §3

[7] = Homo sapiens, MRC5 cells, read-out: Hoechst 33342 nuclear staining EC50, MRC5
[8] = PBL, read-out: Hoechst 33342 nuclear staining EC50, PBL
[9] = Homo sapiens, HeLa cells, read-out: Hoechst 33342 nuclear staining EC50, HeLa
[10] = Homo sapiens, Jurkat cells, read-out: Hoechst 33342 nuclear staining EC50, Jurkat
[11] = Jily cells, read-out: Hoechst 33342 nuclear staining EC50, Jily
[12] = Homo sapiens, HT-1080, HT1080 cells, read-out: MTS proliferation assay IC50, HT1080
[13] = Homo sapiens, HeLa cells, read-out: MTS proliferation assay IC50, HeLa
[14] = Homo sapiens, Jurkat cells, read-out: MTS proliferation assay IC50, Jurkat
[15] = Jily cells, read-out: MTS proliferation assay IC50, Jily
[16] = Homo sapiens, HeLa cells, read-out: Mitochondrial membrane potential (read-out 48 h) HeLa
[17] = Homo sapiens, Jurkat cells, read-out: Mitochondrial membrane potential (read-out 48 h) Jurkat
[18] = Homo sapiens, MCF7 cells, read-out: Mitochondrial membrane potential (read-out 48 h) MCF7
[19] = Jily cells, read-out: Mitochondrial membrane potential (read-out 48 h) Jily

Row | EC50 [1, 8] [nM] | EC50 (tumor cells [2]; [9]) [nM] | EC50 (tumor cells [2]; [10]) [nM] | EC50 (tumor cells [2]; [11]) [nM] | melting point [°C] | IC50 (tumor cells [4]; [12]) [nM] | IC50 (tumor cells [4]; [13]) [nM] | IC50 (tumor cells [4]; [14]) [nM] | IC50 (tumor cells [4]; [15]) [nM] | EC50 [5] [nM] | EC50 (tumor cells [6]; [16]) [nM] | EC50 (tumor cells [6]; [17]) [nM] | EC50 (tumor cells [6]; [18]) [nM] | EC50 (tumor cells [6]; [19]) [nM] | Compound | EC50 [1, 7] [nM] | IC50 [3] [nM]
1 | > 1000 | 10 to 100 | 10 to 100 | 10 to 100 | 140 to 142 | < 10 | 10 to 100 | < 10 | < 10 | > 1000 | 10 to 100 | 10 to 100 | 10 to 100 | 10 to 100 | CCOc1ccc(Cl)cc1C(=O)c1oc2ccc(Cl)cc2c1N [Example 17] | 10 to 100 | < 10
2 | > 1000 | > 1000 | > 1000 | > 1000 | 110 to 112 | > 1000 | > 1000 | > 1000 | > 1000 | > 1000 | > 1000 | > 1000 | > 1000 | > 1000 | CCOc1ccc(NC(C)=O)cc1C(=O)c1oc2ccc(Cl)cc2c1N [Example 21] | > 1000 | > 1000
3 | > 1000 | > 1000 | 100 to 1000 | 100 to 1000 | 132 to 133 | > 1000 | > 1000 | 100 to 1000 | 100 to 1000 | > 1000 | > 1000 | 100 to 1000 | > 1000 | > 1000 | CCOc1cc(OC)c(Br)cc1C(=O)c1oc2ccc(Cl)cc2c1N [Example 23] | > 1000 | > 1000
4 | > 1000 | > 1000 | > 1000 | > 1000 | 121 to 124 | > 1000 | > 1000 | > 1000 | > 1000 | > 1000 | > 1000 | > 1000 | > 1000 | > 1000 | CCOc1c(OC)cccc1C(=O)c1oc2ccc(Cl)cc2c1N [Example 24] | > 1000 | > 1000
5 | > 1000 | > 1000 | 100 to 1000 | 100 to 1000 | 54 | > 1000 | > 1000 | 100 to 1000 | 100 to 1000 | > 1000 | > 1000 | 100 to 1000 | > 1000 | 100 to 1000 | CCOc1c(C)cccc1C(=O)c1oc2ccc(Cl)cc2c1N [Example 25] | > 1000 | > 1000
6 | > 1000 | 10 to 100 | < 10 | 10 to 100 | 174 to 176 | 10 to 100 | 10 to 100 | 10 to 100 | 10 to 100 | > 1000 | 10 to 100 | 10 to 100 | 100 to 1000 | 10 to 100 | CCOc1ccc(Cl)cc1C(=O)c1oc2nc(C)ccc2c1N [Example 27] | > 1000 | 10 to 100
7 | > 1000 | 100 to 1000 | 10 to 100 | 10 to 100 | 156 to 158 | 100 to 1000 | 100 to 1000 | 10 to 100 | 10 to 100 | > 1000 | 100 to 1000 | 10 to 100 | > 1000 | 100 to 1000 | CCOc1ccccc1C(=O)c1oc2nc(C)ccc2c1N [Example 28] | > 1000 | 100 to 1000
8 | > 1000 | 100 to 1000 | 100 to 1000 | 100 to 1000 | 168 | 100 to 1000 | 100 to 1000 | 100 to 1000 | 100 to 1000 | > 1000 | 100 to 1000 | 100 to 1000 | > 1000 | 100 to 1000 | CCOc1ccccc1C(=O)c1oc2cnc(C)cc2c1N [Example 30] | > 1000 | > 1000
